US11446287B2, “Compounds and methods for EP300 or CBP modulation and indications therefor” (Opna Immuno-Oncology SA, priority 2019, dated 2022)

target: T1, Recombinant human CBP containing the bromodomain (CBP-BD (1043-1159)) (Homo sapiens, UniProt Q92793); experiment: CBP Alphascreen binding assay; conditions: read-out: CREBBP (CBP) IC50
T1 construct: Recombinant human CBP bromodomain (CBP-BD (1043-1159)); made in house; host or cells: E. coli BL21-CodonPlus (DE3), modified pET vector
In short: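 Buffer: 50 mM HEPES pH 7.5, 50 mM NaCl, 0.01% BSA, 0.01% Triton X-100, 2 mM DTT. The signal was normalised to plate controls and fitted with a four-parameter curve to give IC50.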

T1 sequence (Q92793 1081-1197): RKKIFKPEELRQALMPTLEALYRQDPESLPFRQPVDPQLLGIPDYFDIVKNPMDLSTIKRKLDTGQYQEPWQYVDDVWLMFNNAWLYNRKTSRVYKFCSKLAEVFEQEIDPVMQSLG

| Structure (SMILES) | IC50 |
| --- | --- |
| Cc1noc(C)c1-c1cnc2c(C(=O)C3CC3)c(O)n(-c3ccnc(C(=O)O)c3)c2c1 [P-0084, 4-(3-(cyclopropanecarbonyl)-6-(3,5-dimethylisoxazol-4-yl)-2-hydroxy-1H-pyrrolo[3,2-b]pyridin-1-yl)picolinic acid] | 0.0001 to 1 µM |
| Cc1noc(C)c1-c1cnc2c(c1)c(-c1cccc(C(=O)O)c1)cn2C(=O)c1ccccc1 [P-0085, 3-(1-benzoyl-5-(3,5-dimethylisoxazol-4-yl)-1H-pyrrolo[2,3-b]pyridin-3-yl)benzoic acid] | 1 to 8 µM |
| Cc1noc(C)c1-c1cnc2c(CC3CCC3)cn(-c3c(C(=O)O)ccc(Br)c3F)c2c1 [P-0086, 4-bromo-2-(3-(cyclobutylmethyl)-6-(3,5-dimethylisoxazol-4-yl)-1H-pyrrolo[3,2-b]pyridin-1-yl)-3-fluorobenzoic acid] | 0.0001 to 1 µM |
| COc1c(-n2cc(CC3CCC3)c3ncc(-c4c(C)noc4C)cc32)ccc(C(=O)O)c1F [P-0087, 4-(3-(cyclobutylmethyl)-6-(3,5-dimethylisoxazol-4-yl)-1H-pyrrolo[3,2-b]pyridin-1-yl)-2-fluoro-3-methoxybenzoic acid] | 0.0001 to 1 µM |
| Cc1noc(C)c1-c1cnc2c(C(=O)c3cccc(Cl)c3)cn(-c3ccnc(C(=O)O)c3)c2c1 [P-0088, 4-(3-(3-chlorobenzoyl)-6-(3,5-dimethylisoxazol-4-yl)-1H-pyrrolo[3,2-b]pyridin-1-yl)picolinic acid] | 0.0001 to 1 µM |
| Cc1noc(C)c1-c1cnc2c(C(=O)c3ccccc3Cl)cn(-c3ccnc(C(=O)O)c3)c2c1 [P-0089, 4-(3-(2-chlorobenzoyl)-6-(3,5-dimethylisoxazol-4-yl)-1H-pyrrolo[3,2-b]pyridin-1-yl)picolinic acid] | 0.0001 to 1 µM |
| Cc1noc(C)c1-c1cnc2c(Cc3cccc(Cl)c3)cn(-c3ccnc(C(=O)O)c3)c2c1 [P-0090, 4-(3-(3-chlorobenzyl)-6-(3,5-dimethylisoxazol-4-yl)-1H-pyrrolo[3,2-b]pyridin-1-yl)picolinic acid] | 0.0001 to 1 µM |
| Cc1noc(C)c1-c1cnc2c(Cc3ccccc3Cl)cn(-c3ccnc(C(=O)O)c3)c2c1 [P-0091, 4-(3-(2-chlorobenzyl)-6-(3,5-dimethylisoxazol-4-yl)-1H-pyrrolo[3,2-b]pyridin-1-yl)picolinic acid] | 0.0001 to 1 µM |
| Cc1noc(C)c1-c1cnc2c(c1)c(-c1cccc(C(=O)NS(C)(=O)=O)c1)cn2Cc1ccccc1 [P-0092, 3-(1-benzyl-5-(3,5-dimethylisoxazol-4-yl)-1H-pyrrolo[2,3-b]pyridin-3-yl)-N-(methylsulfonyl)benzamide] | 1 to 8 µM |
| Cc1noc(C)c1-c1cnc2c(c1)c(C1=CCC(C(=O)O)CC1)cn2Cc1ccccc1 (stereo not shown) [P-0093, 4-(1-benzyl-5-(3,5-dimethylisoxazol-4-yl)-1H-pyrrolo[2,3-b]pyridin-3-yl)cyclohex-3-ene-1-carboxylic acid] | 0.0001 to 1 µM |
| Cc1noc(C)c1-c1cnc2c(c1)c(-c1c(F)cc(C(=O)O)cc1F)cn2C(C)c1ccccn1 (stereo not shown) [P-0094, 4-(5-(3,5-dimethylisoxazol-4-yl)-1-(1-(pyridin-2-yl)ethyl)-1H-pyrrolo[2,3-b]pyridin-3-yl)-3,5-difluorobenzoic acid] | 0.0001 to 1 µM |
| Cc1noc(C)c1-c1cnc2c(c1)c(-c1c(Cl)cc(C(=O)O)cc1Cl)cn2C(C)c1ccccn1 (stereo not shown) [P-0095, 3,5-dichloro-4-(5-(3,5-dimethylisoxazol-4-yl)-1-(1-(pyridin-2-yl)ethyl)-1H-pyrrolo[2,3-b]pyridin-3-yl)benzoic acid] | 0.0001 to 1 µM |
| Cc1noc(C)c1-c1cnc2c(c1)c(-c1c(F)ccc(NS(C)(=O)=O)c1F)cn2C(C)c1ccccn1 (stereo not shown) [P-0096, N-(3-(5-(3,5-dimethylisoxazol-4-yl)-1-(1-(pyridin-2-yl)ethyl)-1H-pyrrolo[2,3-b]pyridin-3-yl)-2,4-difluorophenyl)methanesulfonamide] | 1 to 8 µM |
